Laboratory results published in patent US20260219274A1, “POLYOL SWEETNERS AND CARDIOVASCULAR AND THROMBOTIC EVENT RISK” (THE CLEVELAND CLINIC FOUNDATION, priority 2023, published 2026).

Test system: PRP from healthy volunteers
Experiment: Xylitol dietary challenge: platelet aggregometry before and 30 min after ingestion
Assay type: in vivo, human
Method: The second part of xylitol ingestion studies focused on platelet phenotypic changes after oral xylitol challenge. In these parallel studies, platelet-rich plasma (PRP) was isolated immediately after the blood draw (from the same subjects that were used for xylitol pharmacokinetics studies) and aggregometry assays performed (as described below) on blood samples collected at baseline and 30 min (when postprandial peak levels were observed) after xylitol exposure.
A non-randomized study design was used wherein each subject served as their own control, comparing both xylitol levels and indices of platelet function within subjects at baseline versus 30 min following ingestion of the standardized drink of xylitol. […]
Platelet rich plasma (PRP) was isolated as previously described.^5 Whole blood was drawn from healthy donors and anticoagulated with sodium citrate (0.109 M). […] Next, platelets were counted with a hemocytometer and the platelet concentration adjusted to 2×10^8/mL using PPP. […] When used, pairs of vehicle vs. xylitol incubated PRP were always incubated and analyzed together (beginning, middle, end of platelet prep use) and after 120 minutes post isolation, PRPs were not used anymore.

SMILES: OC[C@@H](O)[C@H](O)[C@@H](O)CO [xylitol]
- aggregation responses to ADP or TRAP6 after ingestion (30 min after 30 g xylitol vs baseline): substantial (multiple-fold) increase
- platelet responsiveness of individual subjects (submaximal ADP and TRAP6, after xylitol ingestion, every subject): significant increase
